Test results reported in PubChem BioAssay AID1259407 (Chemical Carcinogenesis Research Information System (CCRIS), 2018).
Activity calls are given as the source filed them. How the calls were made is not given here.

Test system: CCRIS mutagenicity, Ames/micronucleus/aberration tests
Test: CCRIS mutagenicity studies
[1] = Test System: AMES SALMONELLA TYPHIMURIUM, Strain/Indicator: TA98, Metabolic Activation: NONE, Method: STANDARD PLATE
[2] = Test System: AMES SALMONELLA TYPHIMURIUM, Strain/Indicator: TA100, Metabolic Activation: NONE, Method: STANDARD PLATE

## Cc1cccc(NC(=O)c2csc([N+](=O)[O-])c2)c1
[1]
  mutagenic call: active; positive
[2]
  mutagenic call: active; positive

## CC(=O)c1ccccc1[N+](=O)[O-]
Test System: AMES SALMONELLA TYPHIMURIUM, Strain/Indicator: TA98, Metabolic Activation: HAMSTER, LIVER, S-9, AROCLOR 1254 (10%), Method: PREINCUBATION
  mutagenic call: inactive; negative
Test System: AMES SALMONELLA TYPHIMURIUM, Strain/Indicator: TA98, Metabolic Activation: NONE, Method: PREINCUBATION
  mutagenic call: inactive; negative
Test System: AMES SALMONELLA TYPHIMURIUM, Strain/Indicator: TA98, Metabolic Activation: RAT, LIVER, S-9, AROCLOR 1254 (10%), Method: PREINCUBATION
  mutagenic call: inactive; negative
Test System: AMES SALMONELLA TYPHIMURIUM, Strain/Indicator: TA98, Method: PREINCUBATION
  mutagenic call: inactive; negative
Test System: AMES SALMONELLA TYPHIMURIUM, Strain/Indicator: TA100, Metabolic Activation: HAMSTER, LIVER, S-9, AROCLOR 1254 (10%), Method: PREINCUBATION
  mutagenic call: inactive; negative
Test System: AMES SALMONELLA TYPHIMURIUM, Strain/Indicator: TA100, Metabolic Activation: NONE, Method: PREINCUBATION
  mutagenic call: inactive; negative
Test System: AMES SALMONELLA TYPHIMURIUM, Strain/Indicator: TA100, Metabolic Activation: RAT, LIVER, S-9, AROCLOR 1254 (10%), Method: PREINCUBATION
  mutagenic call: inactive; negative
Test System: AMES SALMONELLA TYPHIMURIUM, Strain/Indicator: TA100, Method: PREINCUBATION
  mutagenic call: inactive; negative
Test System: AMES SALMONELLA TYPHIMURIUM, Strain/Indicator: TA1535, Metabolic Activation: HAMSTER, LIVER, S-9, AROCLOR 1254 (10%), Method: PREINCUBATION
  mutagenic call: inactive; negative
Test System: AMES SALMONELLA TYPHIMURIUM, Strain/Indicator: TA1535, Metabolic Activation: NONE, Method: PREINCUBATION
  mutagenic call: inactive; negative
Test System: AMES SALMONELLA TYPHIMURIUM, Strain/Indicator: TA1535, Metabolic Activation: RAT, LIVER, S-9, AROCLOR 1254 (10%), Method: PREINCUBATION
  mutagenic call: inactive; negative
Test System: AMES SALMONELLA TYPHIMURIUM, Strain/Indicator: TA1535, Method: PREINCUBATION
  mutagenic call: inactive; negative
Test System: AMES SALMONELLA TYPHIMURIUM, Strain/Indicator: TA1537, Metabolic Activation: HAMSTER, LIVER, S-9, AROCLOR 1254 (10%), Method: PREINCUBATION
  mutagenic call: inactive; negative
Test System: AMES SALMONELLA TYPHIMURIUM, Strain/Indicator: TA1537, Metabolic Activation: NONE, Method: PREINCUBATION
  mutagenic call: inactive; negative
Test System: AMES SALMONELLA TYPHIMURIUM, Strain/Indicator: TA1537, Metabolic Activation: RAT, LIVER, S-9, AROCLOR 1254 (10%), Method: PREINCUBATION
  mutagenic call: inactive; negative
Test System: AMES SALMONELLA TYPHIMURIUM, Strain/Indicator: TA1537, Method: PREINCUBATION
  mutagenic call: inactive; negative
Test System: AMES SALMONELLA TYPHIMURIUM, Strain/Indicator: TA1538, Metabolic Activation: NONE, Method: PREINCUBATION
  mutagenic call: inactive; negative
Test System: AMES SALMONELLA TYPHIMURIUM, Strain/Indicator: TA1538, Method: PREINCUBATION
  mutagenic call: inactive; negative

## O=C(O)c1cc(=O)c2c(OCC(O)COc3cccc4oc(C(=O)O)cc(=O)c34)cccc2o1
Test System: AMES SALMONELLA TYPHIMURIUM, Strain/Indicator: TA97, Metabolic Activation: HAMSTER, LIVER, S-9, AROCLOR 1254, Method: STANDARD PLATE
  mutagenic call: inactive; negative
Test System: AMES SALMONELLA TYPHIMURIUM, Strain/Indicator: TA97, Metabolic Activation: NONE, Method: STANDARD PLATE
  mutagenic call: inactive; negative
Test System: AMES SALMONELLA TYPHIMURIUM, Strain/Indicator: TA97, Metabolic Activation: RAT, LIVER, S-9, AROCLOR 1254, Method: STANDARD PLATE
  mutagenic call: inactive; negative
Test System: AMES SALMONELLA TYPHIMURIUM, Strain/Indicator: TA98, Metabolic Activation: HAMSTER, LIVER, S-9, AROCLOR 1254 (2.5-20%), Method: STANDARD PLATE
  mutagenic call: inactive; negative
Test System: AMES SALMONELLA TYPHIMURIUM, Strain/Indicator: TA98, Metabolic Activation: HAMSTER, LIVER, S-9, AROCLOR 1254, Method: STANDARD PLATE
  mutagenic call: inactive; negative
[1]
  mutagenic call: inactive; negative
Test System: AMES SALMONELLA TYPHIMURIUM, Strain/Indicator: TA98, Metabolic Activation: RAT, LIVER, S-9, AROCLOR 1254 (2.5-20%), Method: STANDARD PLATE
  mutagenic call: inactive; negative
Test System: AMES SALMONELLA TYPHIMURIUM, Strain/Indicator: TA98, Metabolic Activation: RAT, LIVER, S-9, AROCLOR 1254, Method: STANDARD PLATE
  mutagenic call: inactive; negative
Test System: AMES SALMONELLA TYPHIMURIUM, Strain/Indicator: TA100, Metabolic Activation: HAMSTER, LIVER, S-9, AROCLOR 1254, Method: STANDARD PLATE
  mutagenic call: inactive; negative
[2]
  mutagenic call: inactive; negative
Test System: AMES SALMONELLA TYPHIMURIUM, Strain/Indicator: TA100, Metabolic Activation: RAT, LIVER, S-9, AROCLOR 1254, Method: STANDARD PLATE
  mutagenic call: inactive; negative
Test System: AMES SALMONELLA TYPHIMURIUM, Strain/Indicator: TA1535, Metabolic Activation: HAMSTER, LIVER, S-9, AROCLOR 1254, Method: STANDARD PLATE
  mutagenic call: inactive; negative
Test System: AMES SALMONELLA TYPHIMURIUM, Strain/Indicator: TA1535, Metabolic Activation: NONE, Method: STANDARD PLATE
  mutagenic call: inactive; negative
Test System: AMES SALMONELLA TYPHIMURIUM, Strain/Indicator: TA1535, Metabolic Activation: RAT, LIVER, S-9, AROCLOR 1254, Method: STANDARD PLATE
  mutagenic call: inactive; negative
Test System: AMES SALMONELLA TYPHIMURIUM, Strain/Indicator: TA1537, Metabolic Activation: HAMSTER, LIVER, S-9, AROCLOR 1254, Method: STANDARD PLATE
  mutagenic call: inactive; negative
Test System: AMES SALMONELLA TYPHIMURIUM, Strain/Indicator: TA1537, Metabolic Activation: NONE, Method: STANDARD PLATE
  mutagenic call: inactive; negative
Test System: AMES SALMONELLA TYPHIMURIUM, Strain/Indicator: TA1537, Metabolic Activation: RAT, LIVER, S-9, AROCLOR 1254, Method: STANDARD PLATE
  mutagenic call: inactive; negative
Test System: AMES SALMONELLA TYPHIMURIUM, Strain/Indicator: TA1538, Metabolic Activation: HAMSTER, LIVER, S-9, AROCLOR 1254 (2.5-20%), Method: STANDARD PLATE
  mutagenic call: inactive; negative
Test System: AMES SALMONELLA TYPHIMURIUM, Strain/Indicator: TA1538, Metabolic Activation: HAMSTER, LIVER, S-9, AROCLOR 1254, Method: STANDARD PLATE
  mutagenic call: inactive; negative
Test System: AMES SALMONELLA TYPHIMURIUM, Strain/Indicator: TA1538, Metabolic Activation: NONE, Method: STANDARD PLATE
  mutagenic call: inactive; negative
Test System: AMES SALMONELLA TYPHIMURIUM, Strain/Indicator: TA1538, Metabolic Activation: RAT, LIVER, S-9, AROCLOR 1254 (2.5-20%), Method: STANDARD PLATE
  mutagenic call: inactive; negative
Test System: AMES SALMONELLA TYPHIMURIUM, Strain/Indicator: TA1538, Metabolic Activation: RAT, LIVER, S-9, AROCLOR 1254, Method: STANDARD PLATE
  mutagenic call: inactive; negative
Test System: MOUSE LYMPHOMA, Strain/Indicator: L5178Y (TK+/TK-), Metabolic Activation: NONE, Method: SUSPENSION/PLATE
  mutagenic call: inactive; negative; reevaluation of results: negative
Test System: MOUSE LYMPHOMA, Strain/Indicator: L5178Y (TK+/TK-), Metabolic Activation: RAT, LIVER, S-9, AROCLOR 1254, Method: SUSPENSION/PLATE
  mutagenic call: inactive; negative. reevaluation of results: negative
